“Also recorded” adds a separate entry of the source.

For experiment [1] the following is noted: ESPS-2; compared with low-dose aspirin / aspirin alone; cited from earlier work.
Experiment [2] relates to common carotid artery of rabbits (angioplasty site). As to the kind of experiment: Study using radiolabeled platelets and fibrinogen in vivo after balloon angioplasty of the carotid artery. Conditions: rabbit carotid artery, monitored four hours after angioplasty; heparin 100 U/kg bolus followed by 25 U/kg/h infusion; dipyridamole 0.25 mg/kg followed by 0.45 mg/kg/hr. The method, then: FIG. 1: Simultaneous detection of ^99Tc labeled platelets and ^123I-labeled fibrinogen at one minute intervals after angioplasty of the common carotid artery of rabbits. […] No injury measurements showing constant radioactivity.
FIG. 2: Deposition of radioactive labeled platelets (^99Tc) and fibrinogen (123I) at angioplasty site after treatment with dipyridamole (0.25 mg/kg followed by 0.45 mg/kg/hr).
The effects of dipyridamole and heparin were investigated using platelets radiolabeled with ^99Tc and fibrinogen labeled with ^123I. The method is described in Lorenz, M. et al., Nuclear Instruments and Methods in Physics Research A., 1994, 353:448-452. An energy-sensitive solid-state radiation detector was placed to surround each carotid artery in rabbits. After inducing injury through balloon angioplasty, the accretion of platelets and fibrinogen was monitored for four hours. […] Accretion was not detected in radiolabeled platelets injected 30 minutes after injury; apparently the angioplasty site had been passivated by endogenous platelet adherence. […] (FIG. 2).

`OCCN(CCO)c1nc(N2CCCCC2)c2nc(N(CCO)CCO)nc(N3CCCCC3)c2n1` [dipyridamole, 2,6-bis(diethanolamino)-4,8-dipiperidino-pyrimido[5,4-d]pyrimidine]: the “reduction of stroke risk” value in experiment [1] is “as effective as low-dose aspirin”. In addition, in experiment [2], the “accretion (deposition) of 99Tc labeled platelets at angioplasty site” value was “reduced; also recorded: reduction in platelet aggregation which was similar to that seen with heparin” and the “accretion (deposition) of 123I-labeled fibrinogen at angioplasty site” value was “almost entirely blocked; also recorded: far greater with dipyridamole than with heparin”.
As for heparin, in experiment [2], the “accretion (deposition) of 99Tc labeled platelets at angioplasty site” value was “reduction of platelet as well as fibrinogen accretion; also recorded: reduced accumulation of both platelets and fibrinogen”; the “accretion (deposition) of 123I-labeled fibrinogen at angioplasty site” value is “reduction of platelet as well as fibrinogen accretion; also recorded: reduced accumulation of both platelets and fibrinogen”.

Source of the values: US20080113934A1, “USE OF DIPYRIDAMOLE OR MOPIDAMOL FOR TREATMENT AND PREVENTION OF FIBRIN-DEPENDENT MICROCIRCULATION DISORDERS” (priority 1999, published 2008).
